Read-outs that look alike come from different tables or passages of the source. Marks after values point to notes of the source that are not given here.
Assays:
[1] = Tacrolimus pharmacokinetic profiles and trough level monitoring before and after switch of booster from ritonavir to cobicistat in an HIV-infected kidney transplant recipient; assay type: in vivo, human; settings: co-administered with darunavir/ritonavir 800/100 mg once daily, 3rd pharmacokinetic profile, dosing interval 10 days for practical reasons
[2] = set-up: method as in PMID 25708713; settings: co-administered with ritonavir; cited from earlier work
[3] = renal transplant recipients in absence of strong inhibitors; cited from earlier work
[4] = Tacrolimus pharmacokinetic profiles and trough level monitoring before and after switch of booster from ritonavir to cobicistat in an HIV-infected kidney transplant recipient; assay type: in vivo, human; settings: for AUC(0-t): read-out: AUC264h; for half-life: read-out: T1/2 (elimination half-life) (converted)
From the text: Due to the high daily pill burden (i.e., 4 tablets mycophenolate mofetil, 10 tablets for the antiretroviral regimen, 7 pills for the treatment of cardiovascular risk factors, and 8 pills for additional indications), and with new combination antiretroviral pills available, a treatment simplification was envisaged. A feasible antiretroviral treatment considering the multi-drug resistant HIV virus was the combination of dolutegravir (INSTI), rilpivirine (NNRTI), maraviroc and the single tablet combination including emtricitabine, tenofovir alafenamide and darunavir boosted with cobicistat (darunavir/c). […] Due to the inducing properties of ritonavir, we predicted that a switch to cobicistat could result in higher tacrolimus concentrations. During three weeks before and three weeks after the switch we closely monitored tacrolimus drug levels (3 full pharmacokinetic profiles before and after changing the booster) to evaluate the effect on tacrolimus exposure (Figs. 1, 2).
Fig. 1 Tacrolimus profiles during ritonavir-boosted and cobicistat-boosted antiretroviral regimens. Three 11 days pharmacokinetic tacrolimus concentrations profiles in blue while on the ritonavir-boosted regimen before the switch and in red while on the cobicistat-boosted regimen after the switch. *For practical reasons (weekend, holidays) tacrolimus trough levels were measured on day 9 at the end of the third pharmacokinetic profile and on day 10 at the end of the sixth pharmacokinetic profile
Fig. 2 Antiretroviral treatment and tacrolimus trough levels before and after therapy switch. Blue bars indicate drugs before switch and blue dots tacrolimus levels before switch. Red bars indicate drugs after switch and red dots indicate tacrolimus trough levels after switch.

[5] = human, plasma, oral, co-administered with darunavir/cobicistat 800/150 mg once daily, 1st pharmacokinetic profile
[6] = human, plasma, oral, co-administered with darunavir/cobicistat 800/150 mg once daily, 2nd pharmacokinetic profile
[7] = human, plasma, oral, co-administered with darunavir/cobicistat 800/150 mg once daily, 3rd pharmacokinetic profile

C=CC[C@@H]1/C=C(\C)C[C@H](C)C[C@H](OC)[C@H]2O[C@@](O)(C(=O)C(=O)N3CCCC[C@H]3C(=O)O[C@H](/C(C)=C/[C@@H]3CC[C@@H](O)[C@H](OC)C3)[C@H](C)[C@@H](O)CC1=O)[C@H](C)C[C@@H]2OC [Tacrolimus, tacrolimus]
C0h (pre-dose plasma concentration) [1]: 6.2^a µg/L
AUC(0-t) ([1]; human, plasma, oral, read-out: AUC264h): 2350 ng·h/mL
increase of tacrolimus elimination half-life [2]: sevenfold
increase of tacrolimus exposure [2]: 57 fold
CL/F [3]: 6.7 L/h
T1/2 [3]: 15.6 h
Tmax ([4]; co-administered with darunavir/cobicistat 800/150 mg once daily, 1st pharmacokinetic profile): 2 h
C0h (pre-dose plasma concentration) ([4]; co-administered with darunavir/cobicistat 800/150 mg once daily, 2nd pharmacokinetic profile, tacrolimus once every 11 days): 4.1 µg/L
C0h (pre-dose plasma concentration) ([4]; co-administered with darunavir/cobicistat 800/150 mg once daily, 3rd (sixth overall) pharmacokinetic profile, dosing interval 10 days for practical reasons): 4.0^a µg/L
C0h (pre-dose plasma concentration) ([4]; co-administered with darunavir/ritonavir 800/100 mg once daily, 1st pharmacokinetic profile, tacrolimus once every 11 days): 7.3 µg/L
C0h (pre-dose plasma concentration) ([4]; co-administered with darunavir/ritonavir 800/100 mg once daily, 2nd pharmacokinetic profile, tacrolimus once every 11 days): 6.1 µg/L
C0h (pre-dose plasma concentration) ([4]; darunavir/cobicistat 800/150 mg once daily section, 1st profile, trough at the day of the switch, i.e. last trough on darunavir/ritonavir, immediately before darunavir/cobicistat): 6.8^b µg/L
tacrolimus trough level ([4]; eleven months post pharmacokinetic booster switch (cobicistat-boosted regimen), dosing interval 11 days): 2.1 µg/L
Cmax ([4]; human, plasma, oral, 0.5 mg, co-administered with darunavir/ritonavir 800/100 mg once daily, 1st pharmacokinetic profile): 15.1 ng/mL
Cmax ([4]; human, plasma, oral, 0.5 mg, co-administered with darunavir/ritonavir 800/100 mg once daily, 2nd pharmacokinetic profile): 17.7 ng/mL
Cmax ([4]; human, plasma, oral, 0.5 mg, co-administered with darunavir/ritonavir 800/100 mg once daily, 3rd pharmacokinetic profile): 17.6 ng/mL
Cmax [4, 5]: 11.7 ng/mL
AUC(0-t) ([4]; human, plasma, oral, co-administered with darunavir/cobicistat 800/150 mg once daily, 1st pharmacokinetic profile, dosing interval 11 days): 1750 ng·h/mL
half-life [4, 5]: 226 h
Cmax [4, 6]: 13.7 ng/mL
AUC(0-t) ([4]; human, plasma, oral, co-administered with darunavir/cobicistat 800/150 mg once daily, 2nd pharmacokinetic profile, dosing interval 11 days): 1870 ng·h/mL
half-life [4, 6]: 175 h
Tmax ([4]; human, plasma, oral, co-administered with darunavir/cobicistat 800/150 mg once daily, 2nd pharmacokinetic profile, read-out: Tmax): 8 h
Cmax [4, 7]: 12.6 ng/mL
half-life [4, 7]: 183 h
Tmax ([4]; human, plasma, oral, co-administered with darunavir/cobicistat 800/150 mg once daily, 3rd pharmacokinetic profile, read-out: Tmax): 4 h
AUC(0-t) ([4]; human, plasma, oral, co-administered with darunavir/ritonavir 800/100 mg once daily, 1st pharmacokinetic profile, dosing interval 11 days): 2650 ng·h/mL
half-life ([4]; human, plasma, oral, co-administered with darunavir/ritonavir 800/100 mg once daily, 1st pharmacokinetic profile): 227 h
Tmax ([4]; human, plasma, oral, co-administered with darunavir/ritonavir 800/100 mg once daily, 1st pharmacokinetic profile, read-out: Tmax): 8 h
AUC(0-t) ([4]; human, plasma, oral, co-administered with darunavir/ritonavir 800/100 mg once daily, 2nd pharmacokinetic profile, dosing interval 11 days): 2380 ng·h/mL
half-life ([4]; human, plasma, oral, co-administered with darunavir/ritonavir 800/100 mg once daily, 2nd pharmacokinetic profile): 275 h
Tmax ([4]; human, plasma, oral, co-administered with darunavir/ritonavir 800/100 mg once daily, 2nd pharmacokinetic profile, read-out: Tmax): 4 h
half-life ([4]; human, plasma, oral, co-administered with darunavir/ritonavir 800/100 mg once daily, 3rd pharmacokinetic profile): 266 h
Tmax ([4]; human, plasma, oral, co-administered with darunavir/ritonavir 800/100 mg once daily, 3rd pharmacokinetic profile, read-out: Tmax): 4 h
AUC(0-t) ([4]; human, plasma, oral, co-administered with darunavir/cobicistat 800/150 mg once daily, 3rd (sixth overall) pharmacokinetic profile, dosing interval 10 days for practical reasons): 1240 ng·h/mL

— PMC10163738, “Switch from a ritonavir to a cobicistat containing antiretroviral regimen and impact on tacrolimus levels in a kidney transplant recipient” (Virology Journal, 2023)
